Patent US6538001B1, “Crystalline modification of 5-fluoro-1-(tetrahydro-2-furyl) uracil and complex compounds based thereon, producing antineoplastic effect” (priority 2001, dated 2003)
≈ marks a conversion by molar mass, not a printed value.

Legend:
[1] = Determination of solubility (USP XXIII article Solubility); format: physicochemical
Method: The solubility was determined in accordance with the requirements set out in the article “Solubility”, USPXXTIII (1995, p. 2071).

[2] = test system: uterine neck cancer cells; assay: Cytotoxicity (MTT) on a culture of uterine neck cancer cells; format: cell-based; parameters: Effect on the proliferation of cancer cells: dose or concentration left out as unconfirmed; conditions: for Optical density at 540 nm: 4 days
Method: The determination was carried out by following the known procedure (Mosmann N. T., J. Immunology Methods, 1983, vol. 65, 55-63, Carmichel J. et al., Cancer Res., 1987, vol. 47, 936-946) on a culture of uterine neck cancer cells. The cells were grown at 37° C. on the RPMI 1640 medium with additives of a 10%embryonal serum of cows and 200 u/ml of gentamicin. CO2 content in the incubator atmosphere was 10%. The cells which were in the exponential phase of growth were suspended with trypsin and inoculated in an amount of 4×10^3 into each socket of a 96-socket dish for monolayer cultures. Solutions of samples of the preparations to be investigated were prepared by dissolving 23 mg of each preparation in 10 ml of a culture broth, 10^−2 M solutions being thus obtained. These were starting solutions for obtaining solutions of a lower concentration by diluting them with the culture broth. Directly before adding the solutions to the cells, these solutions were sterilized by filtering through millipore filters. One day after the inoculation of the cells, solutions of samples of the preparations to be investigated in prescribed concentrations were added into each socket of the dish. After that the cells grew for another 4 days.
All in all, 9 concentrations of each of the 4 samples of the investigated preparations were tested.
Quantitative estimation of the cytotoxicity of the investigated preparations was carried out with the use of 3-(4,5-dimethylthiazol-2-yl)-2,5-diphenyltetrazolium bromide (MTT). […] 0.5 mg/ml was added into each socket of the dish 4 hours before the completion of cells cultivation. On completion of the incubation, the culture broth was removed from the dish sockets, the formasane crystals were dissolved, and the cells were scanned on an automatic Multiscan MCC/340P reader at the 540 nm wavelength. The results were calculated in percent of the cells subjected to the effect of the investigated preparations, absorbed at 540 nm, as against the absorption of control cells.
The action of each concentration of the investigated preparations on cancer cells was estimated from the results of 4-6 independent experiments, treated by methods of mathematical statistics.

In the case of `O=c1[nH]c(=O)n(C2CCCO2)cc1F` (stereo not drawn) [Form V of tegafur, 5-fluoro-1-(tetrahydro-2-furyl)uracil], the “Solubility compared with pharmacopeial tegafur” value ([1]; in words) is reported as “higher than the solubility of pharmacopeial tegafur”, the “Solubility, % with respect to tegafur” value ([1]; temperature of solvent 20 °C) is reported as 187.5% and the “Optical density at 540 nm” value ([2]; 5 × 10^−3 M (on conversion to tegafur), MTT) is reported as 0.25 ± 0.02. The “Optical density at 540 nm” value ([2]; 5 × 10^−4 M (on conversion to tegafur), MTT) was 0.44 ± 0.05, the “Optical density at 540 nm” value ([2]; 5 × 10^−5 M (on conversion to tegafur), MTT) was 0.70 ± 0.03 and the “Optical density at 540 nm” value ([2]; 5 × 10^−6 M (on conversion to tegafur), MTT) was 0.73 ± 0.03. For the same compound, the “Optical density at 540 nm” value ([2]; 10^−2 M (on conversion to tegafur), MTT) was 0.16 ± 0.01, the “Optical density at 540 nm” value ([2]; 10^−3 M (on conversion to tegafur), MTT) was 0.35 ± 0.02 and the “Optical density at 540 nm” value ([2]; 10^−4 M (on conversion to tegafur), MTT) was 0.56 ± 0.06. The “Optical density at 540 nm” value ([2]; 10^−5 M (on conversion to tegafur), MTT) was 0.73 ± 0.08, the “Optical density at 540 nm” value ([2]; 10^−6 M (on conversion to tegafur), MTT) was 0.79 ± 0.08 and the “Inhibition of proliferation more intensive than tegafur” value ([2]; at the concentration of 10^−4 M, relative to tegafur) was 70%. For the same compound, the “Concentration at which the proliferation of cells is inhibited” value ([2]; uterine neck cancer cells, MTT) was 50 µM.
In the case of `O=c1[nH]c(=O)n(C2CCCO2)cc1F` (stereo not drawn) [pharmacopeial tegafur, 5-fluoro-1-(tetrahydro-2-furyl)uracil, reference compound], the solubility ([1]; 20 °C, thermodynamic from solid, temperature of solvent 20 °C) is reported as 8000 µg/mL (≈ 40 mM), the “Optical density at 540 nm” value ([2]; 5 × 10^−3 M (on conversion to tegafur), MTT, listed as Pharmacopeial tegafur) is reported as 0.28 ± 0.005 and the “Optical density at 540 nm” value ([2]; 5 × 10^−4 M (on conversion to tegafur), MTT, listed as Pharmacopeial tegafur) is reported as 0.56 ± 0.12. The “Optical density at 540 nm” value ([2]; 5 × 10^−5 M (on conversion to tegafur), MTT, listed as Pharmacopeial tegafur) was 0.80 ± 0.10, the “Optical density at 540 nm” value ([2]; 5 × 10^−6 M (on conversion to tegafur), MTT, listed as Pharmacopeial tegafur) was 0.76 ± 0.08 and the “Optical density at 540 nm” value ([2]; 10^−2 M (on conversion to tegafur), MTT, listed as Pharmacopeial tegafur) was 0.26 ± 0.04. For the same compound, the “Optical density at 540 nm” value ([2]; 10^−3 M (on conversion to tegafur), MTT, listed as Pharmacopeial tegafur) was 0.45 ± 0.06, the “Optical density at 540 nm” value ([2]; 10^−4 M (on conversion to tegafur), MTT, listed as Pharmacopeial tegafur) was 0.81 ± 0.13 and the “Optical density at 540 nm” value ([2]; 10^−5 M (on conversion to tegafur), MTT, listed as Pharmacopeial tegafur) was 0.81 ± 0.09. The “Optical density at 540 nm” value ([2]; 10^−6 M (on conversion to tegafur), MTT, listed as Pharmacopeial tegafur) was 0.76 ± 0.05 and the “Effect on the proliferation of cancer cells” value ([2]; range of concentrations of 10^−6) was “does not affect the proliferation of cancer cells”.
